Values after ≈ are worked out from the molar mass of the structure shown. Like-named read-outs stand apart in the source and are kept apart here.
How the values were obtained:
Assay type in all cases: cell-based
[1] = tested on: SNB-75; assay: NCI cell line panel; conditions: Homo sapiens, CNS Cancer, read-out: Log10 GI50 (converted)
From the text: (§1) Only two hundred years ago, many diseases ravaged humankind. Many of these diseases now have been controlled or eradicated. In the development of the means to treat or control these diseases, work with the appropriate common experimental animals was of critical importance. With the various types of cancers, and with the HIV virus, such work is presently ongoing. The research for the treatment of various types of cancer is coordinated in the United States by the National Cancer Institute (NCI). NCI, as a government entity, has been charged with assisting anti-cancer research. To establish whether a substance has anti-cancer activity, NCI has established a variety of protocols, one of which involves testing the candidate substance against a cell line panel containing 60 human tumor cell lines. This protocol has been verified and is generally accepted throughout the scientific community. This protocol and the established statistical means of evaluating the results obtained therefrom have been fully described in the literature. See Principles & Practice of Oncology PPO Updates, Volume 3, Number 10, October 1989, by Michael R. Boyd, M.D., Ph.D., for an in depth description of the test protocol. The statistical analysis is explained in "Display and Analysis of Patterns of Differential Activity of Drugs Against Human Tumor Cell Lines: Development of Means Graph and COMPARE Algorithm" Journal of the National Cancer Institute Reports Vol. 81, No. 14, Pg. 1088, Jul. 14, 1989, by K. D. Paull et al. Both of these references are incorporated herein by this reference thereto. The effectiveness and validity of the NCI in vitro protocol continues to be verified.

[2] = tested on: IGROV1; assay: NCI cell line panel; conditions: Homo sapiens, IGROV-1, Ovarian Cancer; for GI50: read-out: Log10 GI50 (converted); for IC (TGI): read-out: Log10 TGI (converted)
From the text: as §1

[3] = tested on: UO-31; assay: NCI cell line panel; conditions: Homo sapiens
From the text: as §1

[4] = tested on: T-47D; assay: NCI cell line panel; conditions: Homo sapiens, T47D, Breast Cancer
From the text: as §1

[5] = tested on: OVCAR-3; assay: NCI cell line panel; conditions: Homo sapiens, Ovarian Cancer, read-out: Log10 GI50 (converted)
From the text: as §1

[6] = tested on: HOP-92; assay: NCI cell line panel; conditions: Homo sapiens, Non-Small Cell Lung Cancer, read-out: Log10 GI50 (converted)
From the text: as §1

[7] = tested on: A549/ATCC; assay: NCI cell line panel; conditions: Homo sapiens, Non-Small Cell Lung Cancer; for GI50: read-out: Log10 GI50 (converted); for IC (TGI): read-out: Log10 TGI (converted)
From the text: as §1

[8] = tested on: SF-539; assay: NCI cell line panel; conditions: Homo sapiens, CNS Cancer, read-out: Log10 GI50 (converted)
From the text: as §1

[9] = tested on: A498; assay: NCI cell line panel; conditions: Homo sapiens; for GI50: A498, Renal Cancer, read-out: Log10 GI50 (converted)
From the text: as §1

[10] = tested on: OVCAR-8; assay: NCI cell line panel; conditions: Homo sapiens, Ovarian Cancer, read-out: Log10 GI50 (converted)
From the text: as §1

[11] = tested on: NCI-H226; assay: NCI cell line panel; conditions: Homo sapiens, Non-Small Cell Lung Cancer, read-out: Log10 GI50 (converted)
From the text: as §1

[12] = tested on: TK-10; assay: NCI cell line panel; conditions: Homo sapiens
From the text: as §1

[13] = tested on: 786-0; assay: NCI cell line panel; conditions: Homo sapiens, Renal Cancer; for GI50: read-out: Log10 GI50 (converted); for IC (TGI): read-out: Log10 TGI (converted)
From the text: as §1

[14] = tested on: MOLT-4; assay: NCI cell line panel; conditions: Homo sapiens, Leukemia, read-out: Log10 GI50 (converted)
From the text: as §1

[15] = tested on: COLO 205; assay: NCI cell line panel; conditions: Homo sapiens; for LC50 (50% lethal concentration): COLO 205, read-out: Log10 LC50 (converted); for IC (TGI): read-out: Log10 TGI (converted)
From the text: as §1

[16] = tested on: K-562; assay: NCI cell line panel; conditions: Homo sapiens, K562; Leukemia; read-out: Log10 GI50 (converted)
From the text: as §1

[17] = tested on: RXF-393; assay: NCI cell line panel; conditions: Homo sapiens, Renal Cancer; for GI50: read-out: Log10 GI50 (converted)
From the text: as §1

[18] = tested on: BT-549; assay: NCI cell line panel; conditions: Homo sapiens
From the text: as §1

[19] = tested on: P388 lymphocytic leukemia cell line; assay: P388 lymphocytic leukemia cell line bioassay; conditions: Mus musculus, pure compound
[20] = tested on: Melanoma; assay: NCI cell line panel, melanoma lines, value not assignable to a single line; conditions: Homo sapiens, 7 values printed for 8 cell lines, in printed order, read-out: Log10 TGI (converted)
From the text: as §1, with “The statistical analysis is explained in "Display and Analysis of Patterns of Differential Activity of Drugs Against Human Tumor Cell Lines: Development of Means Graph and COMPARE Algorithm" Journal of the National Cancer Institute Reports Vol. 81, No. 14, Pg. 1088, Jul. 14, 1989, by K. D. Paull et al. Both of these references are incorporated herein by this reference thereto. The effectiveness and validity of the NCI in vitro protocol continues to be verified.” left out

[21] = tested on: Breast Cancer; assay: NCI cell line panel, breast cancer line, BT-549 or T-47D not assignable; conditions: Homo sapiens, last of 7 values for 8 lines, read-out: Log10 GI50 (converted)
From the text: as §1, with “The statistical analysis is explained in "Display and Analysis of Patterns of Differential Activity of Drugs Against Human Tumor Cell Lines: Development of Means Graph and COMPARE Algorithm" Journal of the National Cancer Institute Reports Vol. 81, No. 14, Pg. 1088, Jul. 14, 1989, by K. D. Paull et al. Both of these references are incorporated herein by this reference thereto. The effectiveness and validity of the NCI in vitro protocol continues to be verified.” left out

[22] = tested on: SK-MEL-5; assay: NCI cell line panel; conditions: Homo sapiens, Melanoma, read-out: Log10 GI50 (converted)
From the text: as §1

[23] = tested on: MDA-N; assay: NCI cell line panel; conditions: Homo sapiens, Breast Cancer, read-out: Log10 GI50 (converted)
From the text: as §1

[24] = tested on: KM12; assay: NCI cell line panel; conditions: Homo sapiens, KM12, read-out: Log10 GI50 (converted)
From the text: as §1

[25] = tested on: NCI-H522; assay: NCI cell line panel; conditions: Homo sapiens, Non-Small Cell Lung Cancer, read-out: Log10 GI50 (converted)
From the text: as §1

[26] = tested on: HT29; assay: NCI cell line panel; conditions: Homo sapiens, HT-29; Colon Cancer; read-out: Log10 GI50 (converted)
From the text: as §1

[27] = tested on: SW-620; assay: NCI cell line panel; conditions: Homo sapiens, SW-620, read-out: Log10 GI50 (converted)
From the text: as §1

[28] = tested on: SK-MEL-2; assay: NCI cell line panel; conditions: Homo sapiens, Melanoma, read-out: Log10 GI50 (converted)
From the text: as §1

[29] = tested on: MDA-MB-435; assay: NCI cell line panel; conditions: Homo sapiens, Breast Cancer, read-out: Log10 GI50 (converted)
From the text: as §1

[30] = tested on: MALME-3M; assay: NCI cell line panel; conditions: Homo sapiens, read-out: Log10 GI50 (converted)
From the text: as §1

[31] = tested on: M14; assay: NCI cell line panel; conditions: Homo sapiens, Melanoma, read-out: Log10 GI50 (converted)
From the text: as §1

[32] = read-out: Log10 TGI (converted)

**Q.** Which results are given for C=C(Cl)/C=C/C(O)CC(=C)CC1OC2C(C)C(OC(=O)CC3CC(O)CC4(CC(C)(O)CC(C=C5COC(C(C)C(=O)CC6CC(OC)CC7(CC(O)CC(/C=C\CCCC8OC(O)(CC(O)C8C)C2O)O7)O6)C5C)O4)O3)C1O (stereo not drawn) [spongistatin 5]?
**A.** GI50 [1]: 0.012 nM; GI50 [2]: 0.141 nM; IC (TGI) [2]: 95.5 nM; GI50 ([3]; UO-31, read-out: Log10 GI50 (converted)): 0.427 nM; GI50 ([4]; read-out: Log10 GI50 (converted)): 100 nM; GI50 [5]: 0.0151 nM; GI50 [6]: 1.41 nM; GI50 [7]: 0.0209 nM; IC (TGI) [7]: 75.9 nM; GI50 [8]: 0.0229 nM; LC50 (50% lethal concentration) ([9]; A498, read-out: Log10 LC50 (converted)): 87.1 nM; GI50 [9]: 0.0257 nM; GI50 [10]: 0.257 nM; GI50 [11]: 0.759 nM; GI50 ([12]; TK-10, Renal Cancer, read-out: Log10 GI50 (converted)): 36.3 nM; GI50 [13]: 0.0251 nM; IC (TGI) [13]: 1.2 nM; GI50 [14]: 0.0372 nM; LC50 (50% lethal concentration) [15]: 7.94 nM; GI50 ([15]; COLO 205, Colon Cancer, read-out: Log10 GI50 (converted)): 0.0129 nM; IC (TGI) ([15]; COLO 205, Colon Cancer): 0.871 nM; GI50 [16]: 0.1 nM; GI50 [17]: 0.0417 nM; GI50 ([18]; BT-549, read-out: Log10 GI50 (converted)): 0.219 nM; IC50 ([19]; PS (P388), read-out: ED50 (the source's name)): 0.066 ng/mL (≈ 0.058 nM)

**Q.** Which results are given for C=C/C=C/C(O)CC(=C)CC1OC2C(C)C(OC(=O)CC3CC(O)CC4(CC(C)(O)CC(C=C5COC(C(C)C(=O)CC6CC(OC)CC7(CC(O)CC(/C=C\CCCC8OC(O)(CC(O)C8C)C2O)O7)O6)C5C)O4)O3)C1O (stereo not drawn) [spongistatin 7]?
**A.** IC (TGI) [20]: 46.8 nM; GI50 [21]: 100 nM; GI50 [1]: 0.372 nM; GI50 [2]: 0.617 nM; IC (TGI) [2]: 67.6 nM; GI50 ([3]; UO-31, Renal Cancer, read-out: Log10 GI50 (converted)): 24 nM; GI50 [22]: 0.0851 nM; GI50 [23]: 0.0151 nM; IC (TGI) [4, 32]: 100 nM; GI50 [5]: 0.0759 nM; GI50 [24]: 0.219 nM; GI50 [6]: 5.25 nM; GI50 [7]: 3.47 nM; IC (TGI) [7]: 100 nM; GI50 [8]: 0.49 nM; GI50 [25]: 0.0282 nM; GI50 [26]: 1.51 nM; GI50 [27]: 0.389 nM; GI50 [9]: 2.69 nM; GI50 [10]: 3.98 nM; GI50 [28]: 0.347 nM; GI50 [11]: 2 nM; GI50 ([12]; TK-10, read-out: Log10 GI50 (converted)): 56.2 nM; IC (TGI) ([12]; TK-10, Renal Cancer, read-out: Log10 TGI (converted)): 100 nM; GI50 [13]: 2 nM; IC (TGI) [13]: 100 nM; GI50 [29]: 0.0191 nM; GI50 [30]: 0.398 nM; GI50 [14]: 0.575 nM; GI50 [31]: 0.49 nM; GI50 ([15]; COLO 205, read-out: Log10 GI50 (converted)): 0.331 nM; LC50 (50% lethal concentration) [15]: 75.9 nM; IC (TGI) ([15]; COLO 205, Colon Cancer): 3.8 nM; GI50 [16]: 0.151 nM; GI50 [17]: 2.69 nM; IC (TGI) [17, 32]: 100 nM; IC (TGI) ([18]; BT-549, Breast Cancer, read-out: Log10 TGI (converted)): 100 nM; IC50 ([19]; P388, unit inferred, read-out: P388 ED50): 2.6 ng/mL (≈ 2.36 nM)

— patent publication US5393897A, “Isolation and structure of spongistatins 5,7,8 and 9” (Arizona Board of Regents acting on behalf of Arizona State …, priority 1993, dated 1995)
